This is an account of results in US12514929B2, “Deformable nano-scale vehicles (DNVS) for trans-blood brain barrier, trans-mucosal, and transdermal drug delivery” (The Regents of the University of California, priority 2017, dated 2026).

Data set [1] can be described thus: Pharmacokinetics of galangin and progalangin in mice. Format: in vivo. The note with it: at 1 h. The text has this: (§1) Progalangin reduced Aβ40 as well as Aβ42 levels (FIG. 19B).
The test system of the next data set is Aβ40. Description: Effect of galangin and progalangin on Aβ40. The settings on record: mouse, in vivo. Also on record: species or system mice.
Description: as §1

The test system of the next data set is Aβ42. The experiment in a line: Effect of galangin and progalangin on Aβ42. More on the design: species or system mice. The note with it: mouse, in vivo.
Description: as §1

As for `O=c1c(O)c(-c2ccccc2)oc2cc(O)cc(O)c12` [Galangin, galangin], the “Brain Cmax” value in data set [1] is “approximately 50 ng/g”. Besides, the Aβ40 levels entry in the data set on Aβ40 is reported as “reduce Aβ40 levels”. Besides, the Aβ42 levels result in the data set on Aβ42 is “no effect”.
